# Source: ChEMBL document CHEMBL5390201, “The Natural Alkaloid (-)-N-Hydroxyapiosporamide Suppresses Colorectal Tumor Progression as an NF-κB Pathway Inhibitor by Targeting the TAK1-TRAF6 Complex” (J Nat Prod, 2023)
# Active and inactive are the calls of the source. No cut-off for these calls is given here.
# Assays:
# Mus musculus [1] = test: In vivo inhibition of NFkappaB activation in athymic BALB/c mouse xenografted with human HT-29 cells assessed as reduction in A20 gene expression in tumor at 5 to 15 mg/kg, ip administered every other day and measured after 14 days by qRT-PCR analysis; type: functional, organism-based; settings: dose 5-15 mg/kg, time 14.0 day
# Mus musculus [2] = test: Anti-inflammatory activity in AOM/DSS-induced BALB/c mouse model inflammatory bowel disease assessed as reduction in DAI score at 5 to 10 mg/kg, ip pretreated with AOM for 7 days further replaced with DSS for 7 days and repeated for 2 times followed by every 2 days compound treatment for […] starting from day 50 and measured once a week; type: functional, organism-based; settings: dose 5-10 mg/kg, time 21.0 day
# HT-29 [3] = test: Induction of apoptosis in human HT-29 cells assessed as necrotic cells at 0.5 uM incubated for 24 hrs by Annexin V-FITC/PI staining based flow cytometric analysis (reference value: 0.14 %); type: functional
# HT-29 [4] = test: Induction of apoptosis in human HT-29 cells assessed as necrotic cells at 0.25 uM incubated for 24 hrs by Annexin V-FITC/PI staining based flow cytometric analysis (reference value: 0.14 %); type: functional
# HCT-15 = test: Cytotoxicity against human HCT-15 cells assessed as decrease in cell viability incubated for 48 hrs by SRB assay; type: functional, cell-based; settings: HCT-15, 48 h
# HCT-116 [5] = test: Inhibition of colony formation in human HCT-116 cells at 0.25 to 10 uM incubated for 24 hrs and measured after 14 days by crystal violet staining based assay; type: functional, cell-based; settings: dose 0.25-10 µM, time 14.0 day
# HT-29 [6] = test: Induction of cell cycle arrest in human HT-29 cells assessed as accumulation of cells at S phase at 5 uM by RNase/PI staining based flow cytometry analysis (reference value: 39.34%); type: functional
# HCT-116 [7] = test: Induction of cell cycle arrest in human HCT-116 cells assessed as decrease in Cdc2 protein expression upto 10 uM incubated for 24 hrs by Western blot analysis; type: functional, cell-based
# HCT-116 [8] = test: Induction of apoptosis in human HCT-116 cells assessed as early apoptotic cells at 5 uM incubated for 24 hrs by Annexin V-FITC/PI staining based flow cytometric analysis (reference value: 7.22 %); type: functional
# HCT-116 [9] = test: Induction of apoptosis in human HCT-116 cells assessed as necrotic cells at 10 uM incubated for 24 hrs by Annexin V-FITC/PI staining based flow cytometric analysis (reference value: 1.1 %); type: functional
# HCT-116 [10] = test: Induction of apoptosis in human HCT-116 cells assessed as necrotic cells at 0.5 uM incubated for 24 hrs by Annexin V-FITC/PI staining based flow cytometric analysis (reference value: 1.1 %); type: functional
# HCT-116 [11] = test: Induction of apoptosis in human HCT-116 cells assessed as necrotic cells at 0.25 uM incubated for 24 hrs by Annexin V-FITC/PI staining based flow cytometric analysis (reference value: 1.1 %); type: functional
# HT-29 [12] = test: Induction of apoptosis in human HT-29 cells assessed as early apoptotic cells at 0.5 uM incubated for 24 hrs by Annexin V-FITC/PI staining based flow cytometric analysis (reference value: 5.29 %); type: functional
# Mus musculus [13] = test: In vivo inhibition of NFkappaB activation in athymic BALB/c mouse xenografted with human HCT-116 cells assessed as reduction in A20 gene expression in tumor at 15 mg/kg, ip administered every other day and measured after 14 days by qRT-PCR analysis; type: functional, organism-based; settings: time 14.0 day
# HT-29 [14] = test: Induction of apoptosis in human HT-29 cells assessed as inhibition of PARP protein expression measured for 24 hrs by Western blot analysis; type: functional, cell-based; settings: dose 0-10 µM
# HT-29 [15] = test: Induction of apoptosis in human HT-29 cells assessed as inhibition of caspase 3 protein expression measured for 24 hrs by Western blot analysis; type: functional, cell-based; settings: dose 0-10 µM
# HCT-116 [16] = test: Induction of apoptosis in human HCT-116 cells assessed as late apoptotic cells at 5 uM incubated for 24 hrs by Annexin V-FITC/PI staining based flow cytometric analysis (reference value: 16.9 %); type: functional
# HT-29 [17] = test: Induction of autophagy in human HT-29 cells assessed as increase in LC3 protein expression at 1 to 10 uM incubated for 24 hrs by Western blot analysis; type: functional, cell-based; settings: dose 1-10 µM
# HCT-116 [18] = test: Induction of autophagy in human HCT-116 cells transfected with GFP-LC3 assessed as increase in LC3 dot puncta at 1 to 10 uM incubated for 24 hrs by fluorescence microscopy; type: functional, cell-based; settings: dose 1-10 µM
# [19] = molecular target: T1, Nuclear factor NF-kappa-B complex (Homo sapiens) (UniProt Q00653+P19838+Q04206); test: Inhibition of TNF-alpha induced NFkappaB activation in human HT-29 cells assessed as inhibition of IkappaBalpha phosphorylation at 1 to 10 uM pretreated for 24 hrs followed by TNFalpha stimulation for 10 mins by Western blot analysis; type: cell-based; settings: dose 1-10 µM, time 1450.0 min
# Mus musculus [20] = test: In vivo inhibition of NFkappaB activation in athymic BALB/c mouse xenografted with human HCT-116 cells assessed as reduction in MCP-1 gene expression in tumor at 15 mg/kg, ip administered every other day and measured after 14 days by qRT-PCR analysis; type: functional, organism-based; settings: time 14.0 day
# [21] = molecular target: T1, Nuclear factor NF-kappa-B complex (Homo sapiens); test: Inhibition of NFkappaB activation in HEK293T cells transfected with Flag-tagged MyD88 and kappaB luciferase/pTK-renilla reporters at 2 uM incubated for 6 hrs by Dual Luciferase Reporter Assay; type: cell-based; settings: HEK-293T
# [22] = molecular target: T1, Nuclear factor NF-kappa-B complex (Homo sapiens); test: Inhibition of NFkappaB activation in HEK293T cells transfected with HA-tagged TAB2 and kappaB luciferase/pTK-renilla reporters at 2 uM incubated for 6 hrs by Dual Luciferase Reporter Assay; type: cell-based; settings: HEK-293T
# [23] = molecular target: T1, Nuclear factor NF-kappa-B complex (Homo sapiens); test: Inhibition of NFkappaB activation in HEK293T cells transfected with HA-tagged p65 and kappaB luciferase/pTK-renilla reporters at 2 uM incubated for 6 hrs by Dual Luciferase Reporter Assay; type: cell-based; settings: HEK-293T
# HT-29 [24] = test: Antitumor activity against human HT-29 cells xenografted in athymic nude BALB/c mouse assessed as reduction in tumor volume at 5 to 15 mg/kg, ip administered every other day and measured every other day for 16 days; type: functional, organism-based; settings: dose 5-15 mg/kg, time 16.0 day
# [25] = Toxicity in athymic nude BALB/c mouse xenografted with human HT-29 cells assessed as pathological changes in kidney at 5 to 15 mg/kg, ip administered every other day and measured after 14 days by hematoxylin and eosin staining-based microscopic analysis; type: organism-based; settings: in vivo, 336 h, dose 5-15 mg/kg, time 14 day
# [26] = Toxicity in athymic nude BALB/c mouse xenografted with human HCT-116 cells assessed as pathological changes in lungs at 5 to 15 mg/kg, ip administered every other day and measured after 14 days by hematoxylin and eosin staining-based microscopic analysis; type: organism-based; settings: in vivo, 336 h, dose 5-15 mg/kg, time 14 day
# [27] = Plasma clearance in Sprague-Dawley rat at 10 mg/kg, ip measured for 24 hrs by HPLC-MS/MS analysis; type: ADME, organism-based
# Mus musculus [28] = test: Anti-inflammatory activity in AOM/DSS-induced BALB/c mouse model inflammatory bowel disease assessed as reduction in colon length at 5 to 10 mg/kg, ip pretreated with AOM for 7 days further replaced with DSS for 7 days and repeated for 2 times followed by every 2 days compound treatment for […] starting from day 50 and measured once a week; type: functional, organism-based; settings: dose 5-10 mg/kg, time 21.0 day
# RKO = test: Cytotoxicity against human RKO cells assessed as decrease in cell viability incubated for 48 hrs by SRB assay; type: functional, cell-based
# T1 sequence (P19838 whole entry, looked up): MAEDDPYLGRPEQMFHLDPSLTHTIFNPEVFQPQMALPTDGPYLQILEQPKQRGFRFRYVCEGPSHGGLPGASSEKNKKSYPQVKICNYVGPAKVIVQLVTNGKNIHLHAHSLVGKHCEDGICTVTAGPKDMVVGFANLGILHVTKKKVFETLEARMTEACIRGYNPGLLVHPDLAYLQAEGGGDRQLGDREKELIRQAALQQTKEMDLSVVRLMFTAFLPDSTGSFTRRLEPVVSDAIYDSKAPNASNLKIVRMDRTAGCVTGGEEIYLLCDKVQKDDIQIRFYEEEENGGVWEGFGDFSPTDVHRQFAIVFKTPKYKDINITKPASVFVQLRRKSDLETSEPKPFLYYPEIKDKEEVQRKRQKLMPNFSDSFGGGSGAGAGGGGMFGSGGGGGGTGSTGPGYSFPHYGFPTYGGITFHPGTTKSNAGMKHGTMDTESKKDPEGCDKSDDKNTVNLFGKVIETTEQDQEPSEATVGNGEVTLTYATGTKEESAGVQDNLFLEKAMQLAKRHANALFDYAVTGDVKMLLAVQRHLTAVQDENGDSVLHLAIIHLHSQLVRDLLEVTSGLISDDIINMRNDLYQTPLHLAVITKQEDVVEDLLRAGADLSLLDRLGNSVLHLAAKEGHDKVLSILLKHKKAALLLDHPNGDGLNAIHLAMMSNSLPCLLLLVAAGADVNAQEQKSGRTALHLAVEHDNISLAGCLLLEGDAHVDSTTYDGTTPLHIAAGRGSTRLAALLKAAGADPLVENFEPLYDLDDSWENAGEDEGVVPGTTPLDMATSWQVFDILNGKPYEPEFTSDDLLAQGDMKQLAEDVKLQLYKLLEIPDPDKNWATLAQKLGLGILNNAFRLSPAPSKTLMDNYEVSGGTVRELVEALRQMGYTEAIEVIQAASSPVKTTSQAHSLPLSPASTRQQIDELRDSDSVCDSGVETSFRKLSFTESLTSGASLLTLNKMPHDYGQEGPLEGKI
# T1 sequence (Q00653 whole entry, looked up): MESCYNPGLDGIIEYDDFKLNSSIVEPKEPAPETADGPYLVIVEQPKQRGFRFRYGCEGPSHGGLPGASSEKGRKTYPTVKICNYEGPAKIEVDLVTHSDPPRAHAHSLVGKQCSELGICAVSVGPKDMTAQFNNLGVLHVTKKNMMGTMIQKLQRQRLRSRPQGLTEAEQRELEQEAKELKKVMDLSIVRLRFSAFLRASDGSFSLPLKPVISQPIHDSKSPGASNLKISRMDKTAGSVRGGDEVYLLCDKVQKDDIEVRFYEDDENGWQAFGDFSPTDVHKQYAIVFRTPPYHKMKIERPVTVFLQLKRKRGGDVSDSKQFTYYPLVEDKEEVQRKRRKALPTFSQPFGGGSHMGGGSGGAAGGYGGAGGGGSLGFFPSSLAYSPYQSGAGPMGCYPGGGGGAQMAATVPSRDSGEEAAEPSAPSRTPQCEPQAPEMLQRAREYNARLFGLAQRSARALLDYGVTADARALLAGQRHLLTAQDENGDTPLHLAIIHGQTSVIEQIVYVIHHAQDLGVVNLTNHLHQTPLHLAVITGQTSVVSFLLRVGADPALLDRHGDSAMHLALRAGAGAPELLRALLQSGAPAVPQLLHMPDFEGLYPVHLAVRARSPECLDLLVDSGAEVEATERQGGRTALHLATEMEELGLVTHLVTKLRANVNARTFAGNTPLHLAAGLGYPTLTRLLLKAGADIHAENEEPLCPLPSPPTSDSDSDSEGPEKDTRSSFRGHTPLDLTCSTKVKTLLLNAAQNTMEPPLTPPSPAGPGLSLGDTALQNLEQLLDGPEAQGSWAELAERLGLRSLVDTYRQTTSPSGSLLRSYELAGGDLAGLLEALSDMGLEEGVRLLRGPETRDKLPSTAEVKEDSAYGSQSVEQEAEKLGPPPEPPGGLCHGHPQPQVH
# T1 sequence (Q04206 whole entry, looked up): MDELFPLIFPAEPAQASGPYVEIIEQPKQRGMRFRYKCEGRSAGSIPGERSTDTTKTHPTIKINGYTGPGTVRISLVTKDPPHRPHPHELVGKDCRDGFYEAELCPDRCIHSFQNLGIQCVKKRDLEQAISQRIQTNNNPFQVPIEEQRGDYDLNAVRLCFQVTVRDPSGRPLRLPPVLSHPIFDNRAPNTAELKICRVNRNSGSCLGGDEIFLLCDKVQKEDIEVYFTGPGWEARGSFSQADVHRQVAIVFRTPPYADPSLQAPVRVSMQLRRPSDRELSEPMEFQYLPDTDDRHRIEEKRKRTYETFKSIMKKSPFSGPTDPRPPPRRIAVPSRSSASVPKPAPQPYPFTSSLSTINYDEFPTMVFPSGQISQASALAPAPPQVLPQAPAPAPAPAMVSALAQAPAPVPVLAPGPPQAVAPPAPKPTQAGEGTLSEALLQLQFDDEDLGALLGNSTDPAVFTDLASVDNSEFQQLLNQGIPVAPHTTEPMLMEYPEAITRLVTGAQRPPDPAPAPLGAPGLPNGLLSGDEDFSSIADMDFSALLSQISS
smiles,measurement,setting,value
C[C@@H]1CC[C@H]2[C@H](C(=O)c3c(O)c([C@@]4(O)CC[C@@H](O)[C@H]5O[C@H]54)cn(O)c3=O)[C@H](C)C=C[C@@H]2C1,inhibition,Mus musculus [1],Active
same,Activity,Mus musculus [2],Active
same,Activity,HT-29 [3],0.2%
same,Activity,HT-29 [4],0.1%
same,IC50,HCT-15,570 nM
same,inhibition,HCT-116 [5],Active
same,Activity,HT-29 [6],32.46%
same,Activity,HCT-116 [7],Active
same,Activity,HCT-116 [8],16.2%
same,Activity,HCT-116 [9],1.56%
same,Activity,HCT-116 [10],2.54%
same,Activity,HCT-116 [11],3.14%
same,Activity,HT-29 [12],37.6%
same,inhibition,Mus musculus [13],Active
same,Activity,HT-29 [14],Dose-Dependent Effect
same,Activity,HT-29 [15],Dose-Dependent Effect
same,Activity,HCT-116 [16],78.5%
same,Activity,HT-29 [17],Active
same,Activity,HCT-116 [18],Active
same,inhibition,[19],Active
same,inhibition,Mus musculus [20],Active
same,inhibition,[21],Active
same,inhibition,[22],Active
same,inhibition,[23],Active
same,Activity,HT-29 [24],Active
same,Activity,[25],Non-Toxic
same,Activity,[26],Non-Toxic
same,CL/F,[27],27 mL/min/kg
same,Activity,Mus musculus [28],Active
same,IC50,RKO,570 nM
